From patent US7855297B2, “Amide derivatives and medicinal use thereof” (Mitsubishi Tanabe Pharma Corporation, priority 2000, dated 2010)

Columns and labels:
[1] = system: C5a stimulated neutrophil; experiment: Increase of intracellular Ca2+ concentration of C5a stimulated neutrophil; format: cell-based; conditions: human neutrophils
Procedure: A neutrophil fraction was separately taken from human peripheral venous blood using Lympholyte-poly (Cedarlane), and suspended in Hank's Balanced Salt Solution (HBSS, GIBCO BRL) supplemented with 1% fetal bovine serum (FBS). Then, Fura 2-AM (final concentration 5 μM, DOJINDO) was added to the neutrophil fraction (5×10^6 cells/mL), and the mixture was incubated at 37° C. for 40 min. The cells were washed by centrifugation and suspended to the concentration of 1×10^6 cells/mL. The intracellular Ca^2+ concentration was measured using a spectrophotofluorometer (CAF-110, JASCO Corporation), and calculated from the ratio (Ex340 value/Ex380 value) of fluorescent intensities at 500 nm upon excitation at 340 nm and 380 nm, the former being Ex340 value, the latter being Ex380 value. […] Then, Triton X-100 (final concentration 0.2%) was added and the cells were dissolved, and sb2 value, which was the […] then, and Rmax value, which was the Ex340 value/Ex380 value then, was measured. Then, EGTA (final concentration 3 mmol/L) was added and sf2 value, which was the […] then, and Rmin value, which was the Ex340/Ex380 value then, was measured. From these measurement results, the intracellular Ca^2+ concentration was calculated from the following formula. […]

[2] = target: T1, C5a receptor (Homo sapiens, UniProt P21730); experiment: C5a receptor binding assay ([125I]-human C5a, dcAMP-U937 cells); conditions: [125I]-C5a 200 pM, 4° C., 2 hr, read-out: IC50 value, concentration at which binding of [125I]-human C5a is inhibited by 50%
T1 construct: U-937 cell was stimulated with 1 mM dibutyryl cyclic AMP (dcAMP, SIGMA) for 2 days to express the C5a receptor; endogenous in cells; host or cells: U-937 cells (human histiocytic lymphoma) differentiated with 1 mM dibutyryl cAMP for 2 days; whole cells, stored frozen and thawed before use
T1 sequence (P21730 1-350): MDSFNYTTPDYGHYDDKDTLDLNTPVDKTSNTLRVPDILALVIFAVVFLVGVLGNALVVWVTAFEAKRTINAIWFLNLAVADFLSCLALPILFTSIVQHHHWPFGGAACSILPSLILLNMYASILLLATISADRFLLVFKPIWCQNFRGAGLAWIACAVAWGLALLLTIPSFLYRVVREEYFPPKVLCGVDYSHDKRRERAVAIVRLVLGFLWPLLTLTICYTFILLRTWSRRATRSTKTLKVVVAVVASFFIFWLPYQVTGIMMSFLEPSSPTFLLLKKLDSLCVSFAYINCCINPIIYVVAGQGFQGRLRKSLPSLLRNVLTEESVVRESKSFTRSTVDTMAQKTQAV
Procedure: The C5a receptor binding inhibitory action of C5a and the test compound was evaluated by a receptor binding assay comprising reacting human cell line U-937 (human histiocytic lymphoma line), which expresses the C5a receptor, with [^125I]-human C5a (Amersham Pharmacia Biotech) in a MultiScreen (MILLIPORE). First, U-937 cell was stimulated with 1 mM dibutyryl cyclic AMP (dcAMP, SIGMA) for 2 days to express the C5a receptor (dcAMP-U937 cell), and suspended in a binding buffer [50 mM HEPES, 1 mM CaCl2, 5 mM MgCl2, 0.5% bovine albumin (BSA, SIGMA), 0.02% NaN3 (pH 7.2)] and stored at −80° C. […] After drying the MultiScreen, the radioactivity on the filter was measured using a gamma counter.
The rate (% inhibition) of inhibition of C5a binding by the test compound was calculated by the following formula using the count value obtained without addition of the test compound as Total, the count value obtained with addition of non-labeled C5a as Non, and the count value obtained with addition of the test compound as Test. % Inhibition=100−[(Test-Non)/(Total-Non)]×100 […]

With `CC(C)c1ccc(N(Cc2ccc(N(C)C)cc2)C(=O)C2CCCc3ccccc32)cc1` (stereo not shown) [Example 4, N-[(4-dimethylaminophenyl)methyl]-N-(4-isopropylphenyl)-1,2,3,4-tetrahydronaphthalene-1-carboxamide] the “agonistic action (increase in intracellular Ca2+ by the compound alone)” value ([1]; compound 3 μmol/L) was “did not induce an increase in intracellular Ca^2+ and the agonistic action was not found”, the IC50 ([1]; recombinant human C5a 100 pmol/L, read-out: IC50 value, concentration at which increase in intracellular Ca2+ concentration of C5a-stimulated neutrophil is inhibited by 50%) was 5 nM and the melting point was 121 °C. The IC50 [2] was 104 nM.
